According to patent US20240299400A1, “Transcription Factor GLI1 Inhibitors and Uses Thereof” (University of Connecticut, priority 2023, published 2024):

Assays:
GLI1 mRNA expression [1] = test: RT-qPCR GLI1 mRNA expression in Sufu-KO MEFs; type: cell-based, mouse; conditions: for IC50: Mus musculus, Ave ± SEM, read-out: RT-qPCR, IC50 Sufu-KO
GLI1 mRNA expression [2] = test: RT-qPCR GLI1 mRNA expression in ASZ001 BCC cells; type: cell-based, mouse; conditions: Mus musculus, Ave ± SEM, read-out: RT-qPCR, IC50 ASZ001
GLI1-ZFD = molecular target: T1, GLI1-ZFD (Homo sapiens, UniProt P08151); test: Microscale thermophoresis (MST) binding to GLI1-ZFD
T1 construct: GLI1-ZFD Expression and Purification; made in house
T1 sequence (P08151 234-388 limits assumed): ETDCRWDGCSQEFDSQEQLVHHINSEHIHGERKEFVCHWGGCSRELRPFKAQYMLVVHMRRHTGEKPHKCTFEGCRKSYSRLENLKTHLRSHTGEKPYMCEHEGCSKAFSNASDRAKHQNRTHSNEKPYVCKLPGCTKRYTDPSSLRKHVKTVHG
Outline: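 RED-NHS–labeled recombinant GLI1 zinc-finger domain (200 nM) was mixed with compound dilutions (DMSO<5%) in 50 mM HEPES pH 8.3, 100 mM NaCl. Binding was read by microscale thermophoresis on a Monolith NT.115.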

ASZ001 cells = test: MTS anti-proliferative assay in ASZ001 cells; type: cell-based, murine; conditions: Mus musculus, ASZ001, Ave ± SEM
DAOY (MB) = test: MTS anti-proliferative assay in DAOY cells; type: cell-based; conditions: Homo sapiens, Daoy; Table 8, 48 h, mean ± SEM
PANC-1 (pancreatic) = test: MTS anti-proliferative assay in PANC-1 cells; type: cell-based; conditions: Homo sapiens, PANC-1; Table 8, 48 h, mean ± SEM
CSNK1A1 = molecular target: T2, CSNK1A1 (Homo sapiens, UniProt P48729); test: ZLyte kinase assay, CSNK1A1; type: biochemical; conditions: average of three replicates
T2 construct: purchased ThermoFisher Scientific (Madison, WI, USA), contract service
Experimental: (§1) Kinase screening experiments. Kinase inhibition/binding experiments were performed by ThermoFisher Scientific (Madison, WI, USA) as a contract service, utilizing their default protocols [G. Yernale, A comprehensive review on the biological interest of quinoline and its derivatives. Bioorg. Med. Chem. 32 (2021) 115973]. Briefly, for ZLyte assay, compound in DMSO (100 nL), kinase buffer (2.4 μL), peptide/kinase mixture (5 μL), and ATP solution (2.5 μL) were mixed in a black 384-well plate. Following a 30 s plate shake to mix reagents, the kinase assay mixture was incubated at RT for 60 min. Following addition of the development reagent solution to each well, another 60 min incubation was performed at RT for reaction development. Fluorescent signal was recorded and subsequently analyzed.

EGFR = molecular target: T3, EGFR (Homo sapiens, UniProt P00533); test: ZLyte kinase assay, EGFR; type: biochemical; conditions: average of three replicates
T3 construct: purchased ThermoFisher Scientific (Madison, WI, USA), contract service
Experimental: as §1

MAP2K1 = molecular target: T4, MAP2K1 (Homo sapiens, UniProt Q02750); test: ZLyte kinase assay, MAP2K1; type: biochemical; conditions: average of three replicates
T4 construct: purchased ThermoFisher Scientific (Madison, WI, USA), contract service
Experimental: as §1

MAPK3 = molecular target: T5, MAPK3 (Homo sapiens, UniProt P27361); test: ZLyte kinase assay, MAPK3; type: biochemical; conditions: average of three replicates
T5 construct: purchased ThermoFisher Scientific (Madison, WI, USA), contract service
Experimental: as §1

PDGFRA = molecular target: T6, PDGFRA (Homo sapiens, UniProt P16234); test: ZLyte kinase assay, PDGFRA; type: biochemical; conditions: average of three replicates
T6 construct: purchased ThermoFisher Scientific (Madison, WI, USA), contract service
Experimental: as §1

RPS6KB1 = molecular target: T7, RPS6KB1 (Homo sapiens, UniProt P23443); test: ZLyte kinase assay, RPS6KB1; type: biochemical; conditions: average of three replicates
T7 construct: purchased ThermoFisher Scientific (Madison, WI, USA), contract service
Experimental: as §1

T7 sequence (P23443 whole entry): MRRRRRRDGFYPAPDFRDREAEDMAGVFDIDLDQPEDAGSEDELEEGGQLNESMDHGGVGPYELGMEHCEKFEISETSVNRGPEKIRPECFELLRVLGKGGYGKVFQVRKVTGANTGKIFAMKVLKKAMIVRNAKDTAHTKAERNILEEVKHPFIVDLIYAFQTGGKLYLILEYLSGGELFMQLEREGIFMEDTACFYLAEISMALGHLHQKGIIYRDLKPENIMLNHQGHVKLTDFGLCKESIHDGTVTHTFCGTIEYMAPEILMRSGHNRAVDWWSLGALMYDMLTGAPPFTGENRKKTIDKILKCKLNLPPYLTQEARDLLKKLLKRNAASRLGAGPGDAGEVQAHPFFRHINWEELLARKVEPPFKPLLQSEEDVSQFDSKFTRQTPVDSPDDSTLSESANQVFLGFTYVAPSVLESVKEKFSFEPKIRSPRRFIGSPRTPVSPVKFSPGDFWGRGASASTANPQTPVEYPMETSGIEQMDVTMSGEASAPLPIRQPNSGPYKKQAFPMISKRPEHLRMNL
T3 sequence (P00533 25-1210): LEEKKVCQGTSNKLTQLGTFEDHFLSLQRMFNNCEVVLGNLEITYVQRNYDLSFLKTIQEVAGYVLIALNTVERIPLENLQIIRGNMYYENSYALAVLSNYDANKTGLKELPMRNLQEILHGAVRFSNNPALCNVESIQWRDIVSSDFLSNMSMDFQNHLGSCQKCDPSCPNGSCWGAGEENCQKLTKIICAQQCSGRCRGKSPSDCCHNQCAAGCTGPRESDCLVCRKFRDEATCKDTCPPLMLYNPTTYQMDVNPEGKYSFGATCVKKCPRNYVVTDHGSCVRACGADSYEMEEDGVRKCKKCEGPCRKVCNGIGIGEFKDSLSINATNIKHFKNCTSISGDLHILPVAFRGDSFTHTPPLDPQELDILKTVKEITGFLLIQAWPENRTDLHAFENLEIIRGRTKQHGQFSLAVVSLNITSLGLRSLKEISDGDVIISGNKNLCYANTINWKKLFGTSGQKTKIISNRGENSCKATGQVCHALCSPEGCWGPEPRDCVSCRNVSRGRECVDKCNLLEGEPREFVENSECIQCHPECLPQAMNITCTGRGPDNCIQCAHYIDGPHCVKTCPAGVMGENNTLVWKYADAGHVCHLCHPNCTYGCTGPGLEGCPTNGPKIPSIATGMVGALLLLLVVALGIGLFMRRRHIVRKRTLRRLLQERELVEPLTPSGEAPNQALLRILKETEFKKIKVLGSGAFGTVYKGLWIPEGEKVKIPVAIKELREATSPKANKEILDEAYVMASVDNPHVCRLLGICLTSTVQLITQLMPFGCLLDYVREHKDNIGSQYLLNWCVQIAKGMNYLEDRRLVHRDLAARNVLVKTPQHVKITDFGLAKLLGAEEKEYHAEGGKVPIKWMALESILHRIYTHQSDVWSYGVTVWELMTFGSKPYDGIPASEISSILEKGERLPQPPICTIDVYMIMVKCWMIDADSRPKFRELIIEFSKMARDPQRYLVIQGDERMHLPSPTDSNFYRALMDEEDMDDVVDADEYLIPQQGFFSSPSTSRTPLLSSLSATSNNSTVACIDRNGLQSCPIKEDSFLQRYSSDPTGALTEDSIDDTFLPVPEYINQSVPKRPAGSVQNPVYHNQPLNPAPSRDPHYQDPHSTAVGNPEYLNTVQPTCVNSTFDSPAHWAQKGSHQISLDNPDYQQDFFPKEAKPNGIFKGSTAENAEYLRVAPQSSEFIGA
T4 sequence (Q02750 whole entry): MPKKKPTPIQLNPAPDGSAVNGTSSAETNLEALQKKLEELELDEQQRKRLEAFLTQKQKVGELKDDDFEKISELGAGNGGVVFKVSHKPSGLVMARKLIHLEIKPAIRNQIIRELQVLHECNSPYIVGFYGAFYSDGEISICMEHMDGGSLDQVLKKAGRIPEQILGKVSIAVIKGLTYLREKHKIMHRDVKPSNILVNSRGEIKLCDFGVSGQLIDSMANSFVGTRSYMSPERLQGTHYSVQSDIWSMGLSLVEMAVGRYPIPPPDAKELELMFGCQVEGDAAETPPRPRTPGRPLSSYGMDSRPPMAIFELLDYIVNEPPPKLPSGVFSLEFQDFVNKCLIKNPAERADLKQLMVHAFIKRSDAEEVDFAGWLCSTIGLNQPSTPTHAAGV
T6 sequence (P16234 24-1089): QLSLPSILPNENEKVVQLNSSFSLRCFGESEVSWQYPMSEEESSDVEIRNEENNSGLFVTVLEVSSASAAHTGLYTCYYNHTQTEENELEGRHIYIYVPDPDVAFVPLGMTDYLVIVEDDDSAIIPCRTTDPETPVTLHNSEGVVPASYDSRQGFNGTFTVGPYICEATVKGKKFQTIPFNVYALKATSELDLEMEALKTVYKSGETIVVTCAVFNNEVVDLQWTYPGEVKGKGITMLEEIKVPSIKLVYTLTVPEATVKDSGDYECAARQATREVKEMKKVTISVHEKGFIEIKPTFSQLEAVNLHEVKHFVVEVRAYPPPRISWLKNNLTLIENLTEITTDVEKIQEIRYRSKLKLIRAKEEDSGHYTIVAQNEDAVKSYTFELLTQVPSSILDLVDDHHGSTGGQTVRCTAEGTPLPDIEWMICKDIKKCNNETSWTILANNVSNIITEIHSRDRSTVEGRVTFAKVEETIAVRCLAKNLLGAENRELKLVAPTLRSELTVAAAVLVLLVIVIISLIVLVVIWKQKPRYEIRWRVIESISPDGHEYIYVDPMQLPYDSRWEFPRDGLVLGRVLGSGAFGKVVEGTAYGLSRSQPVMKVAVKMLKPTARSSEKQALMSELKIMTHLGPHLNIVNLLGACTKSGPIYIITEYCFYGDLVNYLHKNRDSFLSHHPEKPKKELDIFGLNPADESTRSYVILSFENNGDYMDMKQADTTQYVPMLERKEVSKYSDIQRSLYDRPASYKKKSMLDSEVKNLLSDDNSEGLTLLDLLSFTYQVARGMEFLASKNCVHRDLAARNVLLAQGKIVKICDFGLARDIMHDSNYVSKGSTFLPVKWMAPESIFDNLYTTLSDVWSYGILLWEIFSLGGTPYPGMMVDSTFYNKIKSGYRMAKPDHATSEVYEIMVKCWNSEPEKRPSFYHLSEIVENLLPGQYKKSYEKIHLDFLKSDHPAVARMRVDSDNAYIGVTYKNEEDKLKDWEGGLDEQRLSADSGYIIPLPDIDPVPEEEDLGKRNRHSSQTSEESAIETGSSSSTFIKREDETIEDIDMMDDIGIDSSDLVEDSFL
T5 sequence (P27361 whole entry): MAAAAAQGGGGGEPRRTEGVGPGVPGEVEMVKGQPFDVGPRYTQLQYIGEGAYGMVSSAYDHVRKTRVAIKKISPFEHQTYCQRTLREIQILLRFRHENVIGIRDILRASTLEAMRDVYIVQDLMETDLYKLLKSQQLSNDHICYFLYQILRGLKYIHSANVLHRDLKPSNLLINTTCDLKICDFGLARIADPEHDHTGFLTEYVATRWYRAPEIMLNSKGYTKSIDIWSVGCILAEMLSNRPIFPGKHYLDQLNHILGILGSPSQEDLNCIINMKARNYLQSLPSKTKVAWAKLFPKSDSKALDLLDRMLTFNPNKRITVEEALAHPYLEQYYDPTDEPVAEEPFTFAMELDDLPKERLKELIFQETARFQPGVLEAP
T2 sequence (P48729 whole entry): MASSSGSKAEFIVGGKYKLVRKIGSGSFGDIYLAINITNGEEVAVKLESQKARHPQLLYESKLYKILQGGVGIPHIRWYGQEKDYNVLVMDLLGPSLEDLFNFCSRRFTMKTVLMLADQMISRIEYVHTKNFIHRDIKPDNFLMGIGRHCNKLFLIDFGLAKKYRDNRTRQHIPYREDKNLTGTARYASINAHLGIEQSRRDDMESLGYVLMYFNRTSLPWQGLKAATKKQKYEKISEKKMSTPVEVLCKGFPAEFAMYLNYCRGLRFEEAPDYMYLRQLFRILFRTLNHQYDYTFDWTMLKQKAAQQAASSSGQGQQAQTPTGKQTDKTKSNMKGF

IC50 (GLI1 mRNA expression [1]; Table 5, GLI1 mRNA) [µM]	IC50 (GLI1 mRNA expression [2]; ASZ001, Table 5, GLI1 mRNA) [µM]	binding to GLI1 (in words) (GLI1-ZFD; MST binding assay)	Kd (GLI1-ZFD; Table 5, Ave ± SEM) [µM]	GI50 (PANC-1 (pancreatic)) [µM]	inhibition at 1 µM (CSNK1A1) [%]	inhibition at 1 µM (EGFR) [%]	inhibition at 1 µM (MAP2K1) [%]	inhibition at 1 µM (MAPK3) [%]	inhibition at 1 µM (PDGFRA) [%]	inhibition at 1 µM (RPS6KB1) [%]	IC50 (GLI1 mRNA expression [1]; Table 7, GLI1 mRNA) [µM]	IC50 (GLI1 mRNA expression [2]; ASZ001, Table 7, GLI1 mRNA) [µM]	Kd (GLI1-ZFD; Table 7, Ave ± SEM) [µM]	SMILES	anti-GLI1 activity in Sufu-KO cells (in words) (GLI1 mRNA expression [1])	GI50 (ASZ001 cells; Table 5, 48 h) [µM]	GI50 (DAOY (MB)) [µM]	GI50 (ASZ001 cells; Table 7, 48 h) [µM]
> 25	1.3 ± 0.3	does not bind to GLI1	> 125	> 100	4	-2	7	4	0	-2				CCN(CC)c1ccc(C(Nc2ccccn2)c2ccc3ccc(C)nc3c2OC)cc1 (centres unmarked) [Compound 20, N-((4-Diethylaminophenyl)(8-methoxy-2-methylquinolin-7-yl)methyl)pyridin-2-amine]	inactive	> 100	> 100	
				0.83 ± 0.1	3	2	14	2	0	0	2.9 ± 1.9	1.9 ± 0.5	9.1 ± 1.5	Cc1ccc2ccc(C(Nc3ccccn3)c3ccncc3)c(O)c2n1 (centres unmarked) [Compound 39, 7-((Pyridin-4-yl)(pyridin-2-ylamino)methyl)-2-methylquinolin-8-ol]			1.2 ± 0.2	3.9 ± 1.2
				23.2 ± 4.3	6	2	14	7	1	-1	0.82 ± 0.27	0.61 ± 0.34	8 ± 3.1	Cc1ccc2ccc(C(Nc3ccccn3)c3ccc(N4CCCC4=O)cc3)c(O)c2n1 (centres unmarked) [Compound 48, 7-((4-(2-Oxopyrrolidin-1-yl)phenyl)(pyridin-2-ylamino)methyl)-2-methylquinolin-8-ol]			25 ± 2.3	19.6 ± 3.6
